This note sets out measurements from ChEMBL document CHEMBL5584244, “Discovery of novel pyrrolo[2,1-c][1,4]benzodiazepine-3,11-dione (PBD) derivatives as selective HDAC6 inhibitors for the efficient treatment of idiopathic pulmonary fibrosis (IPF) in vitro and in vivo” (Eur J Med Chem, 2024).

Data set [1] concerns the target T1, Polyamine deacetylase HDAC10 (Homo sapiens, UniProt Q969S8).
T1 sequence (Q969S8 whole entry): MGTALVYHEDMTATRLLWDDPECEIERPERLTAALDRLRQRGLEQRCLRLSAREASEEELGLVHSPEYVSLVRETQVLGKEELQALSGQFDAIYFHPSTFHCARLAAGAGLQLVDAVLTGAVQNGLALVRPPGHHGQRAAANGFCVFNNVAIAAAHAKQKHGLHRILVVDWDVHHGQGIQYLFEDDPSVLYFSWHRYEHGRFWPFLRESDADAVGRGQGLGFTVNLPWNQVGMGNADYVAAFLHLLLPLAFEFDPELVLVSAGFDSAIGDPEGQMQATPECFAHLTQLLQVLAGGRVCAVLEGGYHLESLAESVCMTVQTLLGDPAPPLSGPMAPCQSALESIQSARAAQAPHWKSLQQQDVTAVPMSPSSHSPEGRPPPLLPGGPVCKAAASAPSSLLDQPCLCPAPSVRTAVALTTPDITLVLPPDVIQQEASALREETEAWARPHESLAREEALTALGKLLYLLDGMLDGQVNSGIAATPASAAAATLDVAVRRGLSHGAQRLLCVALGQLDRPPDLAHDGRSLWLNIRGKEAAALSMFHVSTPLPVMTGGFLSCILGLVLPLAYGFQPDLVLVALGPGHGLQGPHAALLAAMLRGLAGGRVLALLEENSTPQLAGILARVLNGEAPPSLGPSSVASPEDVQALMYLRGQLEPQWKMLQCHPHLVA
The experiment in a line: Inhibition of N-terminal FLAG-tagged recombinant human HDAC10 (2 to 631 residues) expressed in baculovirus sf9 insect cells expression system using Boc-Lys (Ac)-AMC as substrate incubated for 120 mins by fluorescence analysis.

A further data set relates to Mus musculus. The experiment in a line: Anti-pulmonary fibrosis activity in bleomycin-induced C57BL/6 mouse model of pulmonary fibrosis assessed as increase in body weight at 50 to 100 mg/kg, ip for 3 weeks. The class given is functional, organism-based. As to conditions: dose 50-100 mg/kg.
Data set [2] concerns the target T2, Protein deacetylase HDAC6 (Homo sapiens) (UniProt Q9UBN7).
T2 sequence (whole entry): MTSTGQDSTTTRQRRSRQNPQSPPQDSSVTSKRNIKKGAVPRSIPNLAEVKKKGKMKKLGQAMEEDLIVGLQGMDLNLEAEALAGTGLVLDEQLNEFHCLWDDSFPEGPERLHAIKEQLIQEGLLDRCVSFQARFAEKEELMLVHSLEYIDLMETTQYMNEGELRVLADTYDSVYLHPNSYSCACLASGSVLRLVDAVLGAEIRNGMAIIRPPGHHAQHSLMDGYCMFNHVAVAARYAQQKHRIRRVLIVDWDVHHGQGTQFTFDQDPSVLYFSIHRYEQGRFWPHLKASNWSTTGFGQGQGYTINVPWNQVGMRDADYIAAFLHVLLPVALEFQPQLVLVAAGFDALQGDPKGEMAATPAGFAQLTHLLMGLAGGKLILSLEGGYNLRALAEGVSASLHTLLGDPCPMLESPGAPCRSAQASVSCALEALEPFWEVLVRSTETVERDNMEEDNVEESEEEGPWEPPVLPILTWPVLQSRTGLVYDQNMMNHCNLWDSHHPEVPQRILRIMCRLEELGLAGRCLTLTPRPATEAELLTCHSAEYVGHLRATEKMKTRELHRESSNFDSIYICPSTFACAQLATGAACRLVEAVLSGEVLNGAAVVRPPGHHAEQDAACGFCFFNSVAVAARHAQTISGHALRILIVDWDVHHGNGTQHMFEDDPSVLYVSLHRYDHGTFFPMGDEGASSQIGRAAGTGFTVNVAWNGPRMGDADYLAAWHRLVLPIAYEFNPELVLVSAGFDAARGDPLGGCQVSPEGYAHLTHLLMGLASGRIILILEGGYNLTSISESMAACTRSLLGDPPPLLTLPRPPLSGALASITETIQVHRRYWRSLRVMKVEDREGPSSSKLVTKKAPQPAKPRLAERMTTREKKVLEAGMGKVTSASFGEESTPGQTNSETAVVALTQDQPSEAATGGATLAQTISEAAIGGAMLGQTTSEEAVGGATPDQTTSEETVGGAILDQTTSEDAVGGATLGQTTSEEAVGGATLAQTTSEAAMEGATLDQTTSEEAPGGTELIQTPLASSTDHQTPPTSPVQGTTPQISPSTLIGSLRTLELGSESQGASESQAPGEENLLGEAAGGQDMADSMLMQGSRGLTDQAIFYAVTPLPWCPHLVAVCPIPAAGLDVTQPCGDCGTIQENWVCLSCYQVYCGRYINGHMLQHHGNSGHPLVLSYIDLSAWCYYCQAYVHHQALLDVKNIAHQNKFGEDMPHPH
The data set is described as follows: Inhibition of HDAC6 in TGF-beta1-induced HELF cells assessed as upregulation of acetylated alpha-tubulin level by Western blot analysis. The class given is cell-based. As to conditions: dose 2.5-10 µM. For orientation: A western blot detects proteins with antibodies after separation by electrophoresis.

Data set [3] addresses Mothers against decapentaplegic homolog 3 (Homo sapiens) (UniProt P84022). The experiment in a line: Inhibition of TGF-beta1-induced Smad3 protein phosphorylation level in HELF cells incubated for 48 hrs by Western blot analysis. The format is cell-based. Particulars: dose 2.5-10 µM.
Data set [4] deals with T2, Protein deacetylase HDAC6 (Homo sapiens). The experiment in a line: Inhibition of HDAC6 in TGF-beta1-induced HELF cells assessed as upregulation of acetylated histone H3 level at 2.5 to 10 uM by Western blot analysis. The format is cell-based. As to conditions: dose 2.5-10 µM.
In another data set the target is Histone deacetylase 4 (Homo sapiens, UniProt P56524). The data set is described as follows: Inhibition of recombinant human HDAC4 using Boc-Lys (Ac)-AMC as substrate incubated for 120 mins by fluorescence analysis.
Data set [5] can be described thus: Stability of compound in human liver microsomes assessed as remaining parent compound at 100 uM incubated after 60 mins in presence of NADPH by LC-MS/MS analysis. The format is ADME, Microsome. Particulars: read-out: Stability. For orientation: Microsomes from liver hold many membrane-bound enzymes, among them those of drug oxidation.

The structures appear in SMILES notation. Active and inactive are the calls of the source. The rule behind the calls is not given here.

Sequence of Histone deacetylase 4 (P56524 whole entry): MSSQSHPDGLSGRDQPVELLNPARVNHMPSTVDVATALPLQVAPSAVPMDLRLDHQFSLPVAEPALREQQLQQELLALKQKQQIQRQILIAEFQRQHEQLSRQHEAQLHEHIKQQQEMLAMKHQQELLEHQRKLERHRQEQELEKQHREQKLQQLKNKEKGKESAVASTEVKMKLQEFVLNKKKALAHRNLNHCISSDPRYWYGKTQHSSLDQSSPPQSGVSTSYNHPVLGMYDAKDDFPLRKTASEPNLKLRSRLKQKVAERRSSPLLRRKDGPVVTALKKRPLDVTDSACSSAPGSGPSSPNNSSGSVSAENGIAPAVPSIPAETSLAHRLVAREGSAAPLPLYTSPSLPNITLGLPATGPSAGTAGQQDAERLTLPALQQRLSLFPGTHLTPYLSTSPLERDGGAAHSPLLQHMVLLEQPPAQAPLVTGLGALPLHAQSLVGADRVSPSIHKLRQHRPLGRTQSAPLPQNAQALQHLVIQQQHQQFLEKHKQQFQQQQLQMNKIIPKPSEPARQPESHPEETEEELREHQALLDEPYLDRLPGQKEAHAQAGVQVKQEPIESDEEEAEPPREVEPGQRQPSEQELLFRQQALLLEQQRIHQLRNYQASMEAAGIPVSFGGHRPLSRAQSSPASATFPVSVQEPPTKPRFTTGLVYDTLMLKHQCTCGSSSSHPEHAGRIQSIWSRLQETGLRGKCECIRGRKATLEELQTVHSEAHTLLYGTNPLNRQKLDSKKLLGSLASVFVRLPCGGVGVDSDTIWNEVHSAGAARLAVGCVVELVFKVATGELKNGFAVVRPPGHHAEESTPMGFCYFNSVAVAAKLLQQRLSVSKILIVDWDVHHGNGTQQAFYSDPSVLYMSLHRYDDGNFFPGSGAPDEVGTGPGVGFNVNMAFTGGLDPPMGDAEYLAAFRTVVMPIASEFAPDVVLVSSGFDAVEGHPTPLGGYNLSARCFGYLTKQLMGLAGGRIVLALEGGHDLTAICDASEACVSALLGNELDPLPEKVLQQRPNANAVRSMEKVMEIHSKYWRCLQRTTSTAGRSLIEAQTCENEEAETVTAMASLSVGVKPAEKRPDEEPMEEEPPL
Sequence of Mothers against decapentaplegic homolog 3 (Homo sapiens) (P84022 2-425 limits assumed): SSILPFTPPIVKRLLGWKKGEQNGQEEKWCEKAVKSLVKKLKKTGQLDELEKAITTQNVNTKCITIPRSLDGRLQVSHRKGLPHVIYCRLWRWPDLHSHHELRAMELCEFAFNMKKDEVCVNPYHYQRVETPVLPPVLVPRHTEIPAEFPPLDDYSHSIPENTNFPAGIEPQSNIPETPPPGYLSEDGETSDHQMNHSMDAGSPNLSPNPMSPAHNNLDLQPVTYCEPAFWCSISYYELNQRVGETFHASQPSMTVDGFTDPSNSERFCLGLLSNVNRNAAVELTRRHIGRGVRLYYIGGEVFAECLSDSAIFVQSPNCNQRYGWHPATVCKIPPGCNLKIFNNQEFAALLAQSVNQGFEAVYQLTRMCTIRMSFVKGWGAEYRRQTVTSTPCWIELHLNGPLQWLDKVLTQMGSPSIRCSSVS

In general, IC50 refers to the concentration needed to halve the response being measured. For the compound `CC(=O)O.O=C(NO)c1ccc(CN2C(=O)[C@@H]3CCCN3Cc3ccccc32)cc1`, the values for the IC50 (in data set [1]; at Histone deacetylase 4) were 1320 nM and 847 nM, respectively. For the same compound, in the data set with Mus musculus, the result was Active. The inhibition result in data set [2] and in data set [3] was “Dose-Dependent Effect” throughout. Also, the inhibition result in data set [4] was “inactive”. In addition, in data set [5], the remaining at 1 h, 100 µM was found to be 95.7%.
